Source: paper PMC3638593, “1,4-dihydroxy-2-naphthoic Acid Induces Apoptosis in Human Keratinocyte: Potential Application for Psoriasis Treatment” (Evidence-based Complementary and Alternative Medicine : eCAM, 2013)
Values joined by “and” are separate entries in the source; they are usually repeats but may differ in a detail not shown here. Equal values may be shown once. Read-outs that look alike come from different tables or passages of the source.

Key:
Assay type in all cases: cell-based, human
[1] = tested on: HaCaT cells; assay: Proliferation assay (sulphorhodamine B) on HaCaT; conditions: for IC50: Homo sapiens, read-out: IC50 on growth
Description: (§1) The spontaneously immortalized human epidermal keratinocyte HaCaT cells were purchased from China Centre for Type Culture Collection, Wuhan, China. The human foreskin fibroblast Hs-68 cells were purchased from the American Type Culture Collection (Manassas, VA, USA). The human undifferentiated keratinocyte NCTC 2544 cells were provided by Interlab Cell Line Collection (Genoa, Italy) and the immortalized human epidermal melanocyte PIG1 cells were a gift from Dr Caroline Le Poole (Loyola University Chicago, Maywood, IL, USA). HaCaT and Hs-68 cells were maintained in DMEM, NCTC 2544 in RPMI 1640 and PIG1 cells in Medium 254 with Human Melanocyte Growth Supplement-2, respectively. All cells were cultured in complete medium containing 10% FBS, 100 μg/mL of streptomycin, and 100 U/mL of penicillin (Gibco Laboratories) at 37°C in a humidified atmosphere of 5% CO2. Cell culture experiments were carried out at 60–80% confluent.
(§2) The ethyl acetate extract (EA) of Rubia cordifolia L. was isolated as described. 1,4-dihydroxy-2-naphthoic acid (98%), dithranol (≥90%), and EA were dissolved in DMSO as stock. All cells were seeded and treated with various concentrations of DHNA, dithranol or EA. After treatment, cells were fixed with cold 50% trichloroacetic acid and incubated 1 h at 4°C. Cell was then washed with deionized water, air-dried, and stained with 0.4% (w/v) sulphorhodamine B for 30 min at room temperature. Unincorporated dye was removed with 1% acetic acid wash and the cell was again air-dried. Incorporated dye was then solubilized in 10 mM Tris base and absorbance was measured at 565/690 nm using a Sunrise microplate spectrophotometer (Tecan, Switzerland). IC50 were determined using GraphPad Prism 5.0 (GraphPad Software, San Diego, CA, USA).

[2] = tested on: NCTC 2544 cells; assay: Proliferation assay (sulphorhodamine B) on NCTC 2544; conditions: for IC50: Homo sapiens, read-out: IC50 on growth
Description: as §1, §2

[3] = tested on: HaCaT cells; assay: Hoechst 33342 fluorescent staining for morphological evaluation; conditions: 72 h
Experimental: After DHNA treatment, HaCaT cells were fixed in 4% paraformaldehyde for 30 min, washed with phosphate-buffered saline (PBS) and then stained with 2 μg/mL Hoechst 33342 (Molecular Probes, Eugene, OR, USA) for 15 min at room temperature in the dark. Morphology was evaluated using an Axiophot fluorescence microscope (Carl Zeiss, Oberkochen, Germany).

[4] = tested on: HaCaT cells; assay: Cell cycle analysis (PI, flow cytometry); conditions: 24 h, Figure 5(a)
Experimental: HaCaT cells were treated with DHNA for 24 h, fixed with 75% ice-cold ethanol at 4°C for 1 h and stained with PI/RNase solution (BD Pharmingen) for 15 min at room temperature in the dark. Stained cells were analyzed using the FACSCanto flow cytometer immediately. Cell cycle distribution was calculated with ModFit LT 3.1 (Verity Software House, Topsham, ME, USA).

[5] = tested on: HaCaT cells; assay: DNA fragmentation, Cell Death Detection ELISAplus; conditions: 240 μM (49.01 μg/mL)
Experimental: After incubation of HaCaT cells with DHNA, subsequent experimental steps were following the protocol of the Cell Death Detection ELISA^plus (Roche Applied Science, Basel, Switzerland). Absorbance was measured at 405/490 nm by the Sunrise microplate spectrophotometer. Enrichment of mono- and oligonucleosomes (cytoplasmic histone-associated DNA fragments) into the cytoplasm was calculated as absorbance of treatment cells/absorbance of control (enrichment factor) which was used as a parameter of apoptosis.

O=C(O)c1cc(O)c2ccccc2c1O [DHNA, 1,4-dihydroxy-2-naphthoic acid]
IC50 ([1]; incubation 48 h): 111 µM and 22.8 µg/mL | IC50 ([1]; incubation 72 h): 38.9 µM and 7.95 µg/mL | less potent than dithranol in inhibiting keratinocytes growth ([1]; compared with dithranol): ~ 4 times | IC50 ([2]; NCTC 2544, incubation 48 h): 81.4 µM and 16.6 µg/mL | IC50 ([2]; NCTC 2544, incubation 72 h): 46.8 µM and 9.56 µg/mL | less potent than dithranol in inhibiting keratinocytes growth ([2]; NCTC 2544, compared with dithranol): ~ 12 times | nuclear morphology (Hoechst 33342) ([3]; 120 μM (24.5 μg/mL)): light blue/white fluorescence was emitted from the nuclei of all cells | nuclear fragmentation (Hoechst 33342) ([3]; 30, 60 and 120 μM): nuclear fragmentation was also observed | nuclear morphology (Hoechst 33342) ([3]; 30 and 60 μM): chromatin condensation | G0/G1 cell population ([4]; 60 μM (12.25 μg/mL)): 39.3% | G2/M phase cells ([4]; 60 μM (12.25 μg/mL)): 12.4% | G0/G1 cell population ([4]; 120 μM (24.5 μg/mL)): 51.0% | G2/M phase cells ([4]; 120 μM (24.5 μg/mL)): 9.4% | S phase cells ([4]; 120 μM (24.5 μg/mL)): 39.6% | sub-G0/G1 population ([4]; 120 μM (24.5 μg/mL)): 19.7% | increase of DNA fragmentation compared with vehicle control ([5]; 24 h): approximately 3.4 folds | increase of DNA fragmentation compared with vehicle control ([5]; 48 h): ~5.2 folds
